From patent publication US20230416258A1, “BENZ[…], AND PREPARATION METHOD THEREFOR AND USE THEREOF” (CHINA PHARMACEUTICAL UNIVERSITY, priority 2020, published 2023)

Test system: KM mice
Assay: Test for drug-induced disappearance of righting reflex in mice
Assay type: in vivo
Settings: single rapid bolus via tail vein
Description: In anesthetic drug experiments, latency generally refers to the time from the start of administration to the loss of consciousness of the subject. The shorter latency is preferred, indicating a rapid onset of action after administration. The duration of anesthesia generally refers to the duration of time from the loss of consciousness to the restoration of consciousness of the subject. The duration of the drug will vary from animal model to animal species. Too long anesthesia may produce adverse cardiovascular and respiratory responses, such as adverse neurological effects to the subject, including sleepiness and dizziness; meanwhile, too short duration of anesthesia may affect the anesthesia effect, causing problems such as increase of anesthesia dosage during the operation.
KM mice (female, 18-25 g) were randomly grouped and subjected to a single administration by rapid bolus via the tail vein. The latency and duration of disappearance of righting reflex in the mice were recorded.

COC(=O)CC[C@@H]1N=C(c2ccccc2F)c2cc(Cl)ccc2-n2c(SCCCN(C)C)nnc21 [Compound 57, methyl (S)-3-(8-chloro-1-((3-(dimethylamino)propyl)thio)-6-(2-fluorophenyl)-4H-benzo[f][1,2,4]triazolo[4,3-a][1,4]diazepin-4-yl)propionate] gave a Duration (60 mg/kg) of 5.89 min and a Latency (60 mg/kg) of 0.31 min.
Work on COC(=O)CC[C@@H]1N=C(c2ccccc2F)c2cc(Br)ccc2-n2c(SCCCN(C)C)nnc21 [Compound 58, methyl (S)-3-(8-bromo-1-((3-(dimethylamino)propyl)thio)-6-(2-fluorophenyl)-4H-benzo[f][1,2,4]triazolo[4,3-a][1,4]diazepin-4-yl)propionate] yielded a Duration (30 mg/kg) of 7.76 min, a Latency (30 mg/kg) of 0.25 min and a Duration (60 mg/kg) of 11.17 min. It also gave a Latency (60 mg/kg) of 0.33 min.
For COC(=O)CC[C@@H]1N=C(c2ccccc2F)c2cc(Cl)ccc2-n2c(SCCN3CCN(C)CC3)nnc21 [Compound 60, methyl (S)-3-(8-chloro-6-(2-fluorophenyl)-1-((2-(4-methylpiperazin-1-yl)ethyl)thio)-4H-benzo[f][1,2,4]triazolo[4,3-a][1,4]diazepin-4-yl)propionate], the Duration (30 mg/kg) was 12.27 min and the Latency (30 mg/kg) was 0.49 min.
COC(=O)CC[C@@H]1N=C(c2ccccc2F)c2cc(Br)ccc2-n2c(SCCN3CCN(C)CC3)nnc21 [Compound 61, methyl (S)-3-(8-bromo-6-(2-fluorophenyl)-1-((2-(4-methylpiperazin-1-yl)ethyl)thio)-4H-benzo[f][1,2,4]triazolo[4,3-a][1,4]diazepin-4-yl)propionate] showed a Duration (30 mg/kg) of 12.28 min and a Latency (30 mg/kg) of 0.82 min.
COC(=O)CC[C@@H]1N=C(c2ccccc2F)c2cc([N+](=O)[O-])ccc2-n2c(SCCN3CCN(C)CC3)nnc21 [Compound 62, methyl (S)-3-(8-nitro-6-(2-fluorophenyl)-1-((2-(4-methylpiperazin-1-yl)ethyl)thio)-4H-benzo[f][1,2,4]triazolo[4,3-a][1,4]diazepin-4-yl)propionate] gave a Duration (60 mg/kg) of 10.05 min and a Latency (60 mg/kg) of 0.86 min.
In the case of COC(=O)CC[C@@H]1N=C(c2ccccc2F)c2cc(Cl)ccc2-n2c(SC3CCN(C)CC3)nnc21 [Compound 63, methyl (S)-3-(8-chloro-6-(2-fluorophenyl)-1-((1-methylpiperidin-4-yl)thio)-4H-benzo[f][1,2,4]triazolo[4,3-a][1,4]diazepin-4-yl)propionate], the Duration (30 mg/kg) is reported as 15.25 min and the Latency (30 mg/kg) is reported as 1.23 min.
COC(=O)CC[C@@H]1N=C(c2ccccc2F)c2cc(Br)ccc2-n2c(SC3CCN(C)CC3)nnc21 [Compound 64, methyl (S)-3-(8-bromo-6-(2-fluorophenyl)-1-((1-methylpiperidin-4-yl)thio)-4H-benzo[f][1,2,4]triazolo[4,3-a][1,4]diazepin-4-yl)propionate] was tested, and the Duration (60 mg/kg) was 14.27 min and the Latency (60 mg/kg) was 0.99 min.
COC(=O)CC[C@@H]1N=C(c2ccccc2F)c2cc([N+](=O)[O-])ccc2-n2c(SC3CCN(C)CC3)nnc21 [Compound 65, methyl (S)-3-(8-nitro-6-(2-fluorophenyl)-1-((1-methylpiperidin-4-yl)thio)-4H-benzo[f][1,2,4]triazolo[4,3-a][1,4]diazepin-4-yl)propionate] was tested, and the Duration (30 mg/kg) was 17.25 min and the Latency (30 mg/kg) was 1.74 min.
COC(=O)CC[C@@H]1N=C(c2ccccc2F)c2cc(Cl)ccc2-n2c(SCCCN3CCN(CCO)CC3)nnc21 [Compound 66, methyl (S)-3-(8-chloro-6-(2-fluorophenyl)-1-((3-(4-(2-hydroxyethyl)piperazin-1-yl)propyl)thio)-4H-benzo[f][1,2,4]triazolo[4,3-a][1,4]diazepin-4-yl)propionate] was tested, and the Duration (60 mg/kg) was 4.27 min and the Latency (60 mg/kg) was 0.89 min.
